Results on 4 compounds are retold here after article PMC4623604, “Discovery of Small Molecules that Inhibit the Disordered Protein, p27^Kip1” (Scientific Reports, 2015).

Data set [1] concerns the target T1, Cdk2/cyclin A (Homo sapiens, UniProt P24941).
T1 construct: Full length human Cdk2, active Cdk2 (phosphorylated at threonine 160); truncated human cyclin A (residues 173–432); made in house
The experiment in a line: Cdk2/cyclin A kinase activity assay (Histone H1 substrate). Type of data set: biochemical. Here is the method:
Cdk2/Cyclin A (200 pM) was mixed with Histone H1 (15 μM; EMD Millipore), p27-D2 (200 nM) and varied amounts of lyophilized SJ403 and incubated overnight at 4 °C. The effect of the SJ403 compound on Cdk2 activity was determined by performing similar experiments in the absence of p27-D2. Subsequently, ATP (50 μM total concentration, of which 6 μCi γ ^32P-ATP (PerkinElmer, Inc)) was added to each reaction and further incubated for 35 minutes at 30 °C. […] The sample buffer contained 20 mM HEPES pH 7.3, 25 mM sodium β-glycerolphosphate, 15 mM MgCl2, 16 mM EGTA, 0.5 mM Na3VO4 and 10 mM DTT. The reactions were quenched by addition of SDS-gel loading buffer (5 μL) and then analyzed by SDS-PAGE (10 μL). The gels were dried at 70 °C under vacuum and a phosphoimager (GE Healthcare, Piscataway, NJ) was used to quantify the ^32P-Histone H1 bands. IC50 values were determined by curve fitting using KaleidaGraph software. Experiments were performed in triplicate and mean IC50 and standard deviations of the mean values are reported.

In data set [2] the target is T1, Cdk2/cyclin A. The data set can be described thus: Fluorescence anisotropy analysis of Cdk2/cyclin A binding to p27-D2-FL. The following applies: Alexa Fluor 488 labeled p27-D2. Here is the method: Figure 4 Fluorescence anisotropy analysis of displacement of p27-D2-FL from Cdk2/cyclin A by SJ403. (a) Fluorescence anisotropy analysis of Cdk2/cyclin A binding to p27-D2-FL. The starting condition (20 nM p27-D2-FL, 300 nM Cdk2/cyclin A) for assessing the effect of fragment hit SJ403 on p27 function is represented as the red circle on the binding isotherm. (b) Titration of SJ403 (0–3 mM) caused the displacement of p27-D2 from Cdk2/cyclin A, resulting in a decrease in fluorescence anisotropy values. Experiments were performed in triplicate and average values and the standard deviations of the means are shown.
The p27-D2-C99S-R93C mutant was conjugated with Alexa Fluor488-C5-Maleimide (Life Technologies, p27-D2-FL) in buffer containing 20 mM Na phosphate, pH7.3, 20 mM NaCl according to the manufacturer’s protocol. The conjugated protein was further purified by reverse-phase high performance liquid chromatography (HPLC) using a C4 column (Vydac) and 0.1% trifluoroacetic acid-containing water/acetonitrile solvent system. […] Fluorescence anisotropy measurements were performed at 25 °C on a Horiba Fluorolog 3 spectrofluorometer. […] All samples have been incubated overnight in the dark at 4 °C prior to fluorescence measurements. Fluorescence anisotropy binding data was analyzed using KaleidaGraph. […]

For data set [3], the target named is T2, p27-KID (Homo sapiens, UniProt P46527).
T2 construct: 6xHis (N, cleaved yes); made in house; host or cells: E. coli (pET28a)
T2 sequence (P46527 22-105): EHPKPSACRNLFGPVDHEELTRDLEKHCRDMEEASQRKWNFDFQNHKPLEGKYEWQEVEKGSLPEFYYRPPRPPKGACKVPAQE
The experiment in a line: NMR fragment screening and 2D 1H-15N HSQC chemical shift perturbation mapping. Format: binding. On the set-up: key to Binding Group (site of chemical shift perturbations in p27-KID): Molecules in Group 1 bound to a localized region, F87YY89; molecules in Group 2 bound to this region as well as two others containing two W residues (W60 and W76). The following applies: 100 μM 15N-p27-KID; for chemical shift perturbations in 2D HSQC spectra of p27-KID: titrated to 30-fold molar excess (3 mM). The source says: We used one-dimensional (1D) ^1H WaterLOGSY[35] and STD[36] […] Fragment molecules were selected from either a commercial library (1,100 compounds from the Ro3 collection, Maybridge/Thermo Fisher Scientific) or an in-house library of 1,222 compounds based on the “Rule of Three”[40] and other criteria (see Methods). […] Binding sites for these compounds were identified by titration into ^15N-p27-KID and analysis of two-dimensional (2D) ^1H-^15N HSQC spectra. […] We termed these molecules Groups 1 and 2, respectively (Fig. 1b,c); representative ^1H CSP histograms are shown in Fig. 1d,e, and ^15N CSPs are presented in Suppl. Fig. 2. Data for all other small molecules are shown in Suppl. Fig. 3.
Screening and validation NMR experiments were performed at 298 K (25 °C) using either a Varian Inova 600 MHz spectrometer equipped with a triple resonance (HCN) room temperature gradient probe or a Bruker Avance 600 MHz spectrometer equipped with TCI cryogenic gradient probe and a SampleJet sample changer. Fragment molecules were initially analyzed as pools of five molecules dissolved at 10 mM each in DMSO-D6. […] For initial fragment screening experiments, one-dimensional (1D) ^1H- and WaterLOGSY[35] NMR spectra were recorded for compound pools without and with protein. […] DMSO-D6 was added to maintain a constant concentration (2% vol/vol). […] Tryptophan and tyrosine, respectively, were titrated into ^15N-p27-KID (100 μM) up to 3 mM. Three-dimensional (3D) backbone triple-resonance experiments to establish resonance assignments for the p27 constructs were performed using the Bruker Avance 600 MHz spectrometer. […] Fig. 12b,c and d,e, respectively. 2D ^1H-^15N TROSY-HSQC NMR experiments with ^2H/^13C/^15N-p27-D2/Cdk2/cyclin A and SJ403 have been recorded at 308 K (35 °C). 2D ^1H-^15N HSQC experiments of representative fragment hits (1 mM of SJ319843, group 1 and SJ403, group 2, respectively) with ^15N-p21-KID (20 μM) were recorded at 298 K using a Bruker Avance 600 MHz spectrometer. NMR spectra were processed using Bruker Topspin software and analyzed using computer-aided resonance assignment (CARA) software.
Chemical shift perturbations are generally quantified as combined ^1H and ^15N chemical shift values. […] Thus, the use of a combined chemical shift values would mask the effects of compound binding. […] Thus, the assessment of statistical significance was based upon whether a particular CSP value was larger than, i) the experimental spectral resolution in the given dimension (^1H or ^15N) and ii) the quantity, Δδave + 2σ, for that dimension.

Data set [4] deals with T2, p27-KID. The experiment in a line: NMR 2D 1H-15N in-phase HSQC titration, binding affinity for p27:small molecule interactions. The following applies: sixteen-point titration, 100 μM 15N-p27-KID, inhibitor 0-3 mM. Here is the method: 1D and 2D NMR analysis of these molecules led to the identification of 15 additional p27-D2-binding compounds (six with Group 1-like binding features and nine with Group 2-like features; Suppl. Fig. 3b and Suppl. Table 1b).
Sixteen point titrations of representative fragment hits from Group 1 and Group 2 (SJ572710 and SJ572403, respectively) into ^15N-p27-KID (100 μM) were recorded using an adopted “in-phase” 2D ^1H-^15N HISQC with proton decoupling during ^15N chemical shift labeling achieved with a WALTZ16 composite pulse with an amplitude of 7.1 kHz[54][55]. All experiments were collected at a Bruker Avance 800 MHz spectrometer equipped with TCI cryogenic gradient probe. The following molar ratios of ^15N-p27-KID (100 μM) to inhibitor were used: 1:0, 1:0.1, 1:1.5, 1:3, 1:4.5, 1:6, 1:7.5, 1:9, 1:10.5, 1:12, 1:15, 1:18, 1:21, 1:24, 1:27 and 1:30. Each spectrum was recorded with 256 (t1,max = 31.0 ms) and 1024 (t2,max = 106.5 ms) complex points in the ^15N and ^1H dimensions, respectively, with eight transients collected per point. The spectral resolution of the ^1H and ^15N dimensions was 2.4 and 1.7 Hz, respectively. […] The data was processed using the NMRPipe package[56] and analyzed using in-house scripts written in Python using the Scipy computing libraries and Mathematica (Wolfram Research). […]

“p27-D2: D2 sub-domain of p27, residues 58-105 of human p27 (RKWNFDFQNHKPLEGKYEWQEVEKGSLPEFYYRPPRPPKGACKVPAQE; UniProt P46527 58-105, looked up, fragment)”: the IC50 with Cdk2/cyclin A [1] (200 pM Cdk2/cyclin A, Histone H1 substrate, read-out: IC50, inhibition of Cdk2/cyclin A) was found to be 0.152 ± 0.039 µM. Also, the “Cdk2 kinase activity maintained (of full kinase activity)” value with Cdk2/cyclin A [1] (200 nM p27-D2, 200 pM Cdk2/cyclin A, before SJ403) is ~ 13%. Also, binding in the data set with Cdk2/cyclin A [2] was put at a Kd of 0.073 ± 0.008 µM.

For `N[C@@H](Cc1c[nH]c2ccccc12)C(=O)O` [tryptophan, reference compound], on p27-KID [3], the “chemical shift perturbations in 2D HSQC spectra of p27-KID” value is recorded as “neither aromatic amino acid cause chemical shift perturbations”. With `N[C@@H](Cc1ccc(O)cc1)C(=O)O` [tyrosine, reference compound], the “chemical shift perturbations in 2D HSQC spectra of p27-KID” value on p27-KID [3] was “neither aromatic amino acid cause chemical shift perturbations”.

`O=c1oc2cc(OCCO)ccc2c2c1CCCC2` [SJ710]: the Kd on p27-KID [4] was determined as 4800 ± 1300 µM. On p27-KID [3] (2D 1H-15N HSQC), the “Binding Group (site of chemical shift perturbations in p27-KID)” value is given as “Group 1”.
